From patent US20240025906A1 (NEURON23, INC., priority 2022, published 2024)
pIC50, pKd: −log10 of the molar value.

Legend:
[1] = test system: JAK1/TYK2 pSTAT5 (Tyr694/699) in THP-1 cell line; experiment: IFNa-stimulated JAK1/TYK2 pSTAT5 (Tyr694/699) inhibition cellular assay, AlphaLISA; type: cell-based; details: Homo sapiens; THP-1 cells, IFNa-stimulated pSTAT5 (Tyr694/699), AlphaLISA (Assay B); read-out: Cellular_THP1_IFNa-pSTATS_TYK2
Outline: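 The readout is AlphaLISA signal at 615 nm for phospho-STAT5 in THP-1 lysates after IFNa stimulation (added at 100 ng/mL, 30 min, 37 °C). Cells had compound for 1 h beforehand across eight 6-fold concentrations up to 10000 nM final. IC50s are 4PL fits with bottom and Hill slope constrained.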

TYK2 JH2 = biological target: T1, TYK2 JH2 (Homo sapiens, UniProt P29597); experiment: TYK2 JH2 binding assay (KINOMEscan KdELECT competitive binding); details: TYK2 JH2 domain, KINOMEscan KdELECT (Assay A); read-out: Biochemical TYK2_DiscoverX_JH2_BND_Kd
T1 construct: purchased DiscoverX (KINOMEscan KdELECT service); host or cells: E. coli BL21-derived (T7 phage display) or HEK-293
Outline: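 Competition binding, KdELECT format. Kinase (phage-tagged, E. coli BL21-derived host; or HEK-293, DNA-tagged) + ligand-coated streptavidin beads + cpd, 1 h RT, final DMSO 0.9%. Wash, elute 30 min with 0.5 μM non-biotinylated ligand; qPCR readout. Kd: 11-pt, 3-fold series.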

T1 sequence (P29597 589-875 limits assumed): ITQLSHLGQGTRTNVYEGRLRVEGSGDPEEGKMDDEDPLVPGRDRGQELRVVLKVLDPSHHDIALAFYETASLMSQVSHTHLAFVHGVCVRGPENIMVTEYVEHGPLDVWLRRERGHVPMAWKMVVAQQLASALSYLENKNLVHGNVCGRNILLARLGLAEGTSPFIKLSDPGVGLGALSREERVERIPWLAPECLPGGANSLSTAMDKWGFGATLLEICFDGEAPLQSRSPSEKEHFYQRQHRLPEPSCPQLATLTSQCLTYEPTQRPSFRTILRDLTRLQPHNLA

Compound `CNc1ncc(-c2nc3ccc(N4CCOC(C(C)(C)F)C4)cn3n2)c2cc(NC(=O)C3CC3)ncc12` (centres unmarked) [Example 1048] has a pIC50 [1] of no less than 6.30 and a pKd (TYK2 JH2) of no less than 7.00.

With `CNc1ncc(-c2cn3cc(N4CCO[C@H](C)C4)ccc3n2)c2cc(NC(=O)C3CC3)ncc12` [Example 1051] the pIC50 [1] was no less than 6.30 and the pKd (TYK2 JH2) was no less than 7.00.

With `CNc1ncc(-c2cn3cc(N4CCO[C@@H](C)C4)ccc3n2)c2cc(NC(=O)C3CC3)ncc12` [Example 1052] the pIC50 [1] was no less than 6.30 and the pKd (TYK2 JH2) was no less than 7.00.

Compound `CNc1ncc(-c2nc3ccc(N4CCOC(CCCO)C4)cn3n2)c2cc(NC(=O)C3CC3)ncc12` (centres unmarked) [Example 1053] has a pIC50 [1] of no less than 6.30 and a pKd (TYK2 JH2) of no less than 7.00.

`CNc1ncc(-c2cc3cc(OC)ccc3o2)c2cc(NC(=O)C3CC3)ncc12` [Example 1054] gave a pIC50 [1] of no less than 6.30 and a pKd (TYK2 JH2) of no less than 7.00.

With `CNc1ncc(-c2cn3cc(C)cc(F)c3n2)c2cc(NC(=O)C3CC3)ncc12` [Example 1055] the pIC50 [1] was no less than 6.30 and the pKd (TYK2 JH2) was no less than 7.00.

For `CNc1ncc(-c2cn3cc(C)ccc3n2)c2cc(NC(=O)C3CC3)ncc12` [Example 1056], the pIC50 [1] was no less than 6.30 and the pKd (TYK2 JH2) was no less than 7.00.

`CNc1ncc(-c2nc3cc(N4CCOC(C(F)F)C4)ccc3o2)c2cc(NC(=O)[C@H]3C[C@H]3C)ncc12` (stereo partly drawn) [Example 1057, (1S,2R)—N-(5-(5-(2-(difluoromethyl)morpholino)benzo[d]oxazol-2-yl)-8-(methylamino)-2,7-naphthyridin-3-yl)-2-methylcyclopropane-1-carboxamide] gave a pIC50 [1] of no less than 6.30 and a pKd (TYK2 JH2) of no less than 7.00.

In the case of `CNc1ncc(-c2nc3cc(N4CCO[C@H](C(F)F)C4)ccc3o2)c2cc(NC(=O)[C@H]3C[C@H]3C)ncc12` [Example 1058], the pIC50 [1] was no less than 6.30 and the pKd (TYK2 JH2) was no less than 7.00.

`CNc1ncc(-c2nc3cc(N4CCO[C@@H](C(F)F)C4)ccc3o2)c2cc(NC(=O)[C@H]3C[C@H]3C)ncc12` [Example 1059] showed a pIC50 [1] of no less than 6.30 and a pKd (TYK2 JH2) of no less than 7.00.

In the case of `CNc1ncc(-c2nc3cc(OC)ccc3o2)c2cc(NC(=O)[C@H]3C[C@@H]3C)ncc12` [Example 1060, (1S,2S)-N-(5-(5-methoxybenzo[d]oxazol-2-yl)-8-(methylamino)-2,7-naphthyridin-3-yl)-2-methylcyclopropane-1-carboxamide], the pIC50 [1] was no less than 6.30 and the pKd (TYK2 JH2) was no less than 7.00.

`CNc1ncc(-c2nc3cc(OC)ccc3o2)c2cc(NC(=O)[C@@H]3C[C@H]3C)ncc12` [Example 1061, (1R,2R)-N-(5-(5-methoxybenzo[d]oxazol-2-yl)-8-(methylamino)-2,7-naphthyridin-3-yl)-2-methylcyclopropane-1-carboxamide] showed a pIC50 [1] of no less than 6.30 and a pKd (TYK2 JH2) of no less than 7.00.

`CNc1ncc(-c2nc3cc(N4C[C@@H](C)O[C@@H](C)C4)ccc3o2)c2cc(NC(=O)[C@@H]3C[C@@H]3F)ncc12` [Example 1062, (1S,2S)-N-[5-[5-[(2R,6S)-2,6-dimethylmorpholin-4-yl]-1,3-benzoxazol-2-yl]-8-(methylamino)-2,7-naphthyridin-3-yl]-2-fluoro-cyclopropanecarboxamide] was tested, and the pIC50 [1] was no less than 6.30 and the pKd (TYK2 JH2) was no less than 7.00.

`CNc1ncc(-c2nc3cc(N4C[C@@H](C)O[C@@H](C)C4)ccc3o2)c2cc(NC(=O)[C@H]3C[C@H]3C)ncc12` [Example 1063, (1S,2R)-N-[5-[5-[(2R,6S)-2,6-dimethylmorpholin-4-yl]-1,3-benzoxazol-2-yl]-8-(methylamino)-2,7-naphthyridin-3-yl]-2-methyl-cyclopropanecarboxamide] was tested, and the pIC50 [1] was no less than 6.30 and the pKd (TYK2 JH2) was no less than 7.00.

`CNc1ncc(-c2nc3cc(N4CCOCC4)ccc3o2)c2cc(NC(=O)C3C[C@@H]3C(F)(F)F)ncc12` (some centres unmarked) [Example 1065, N-(8-(methylamino)-5-(5-morpholinobenzo[d]oxazol-2-yl)-2,7-naphthyridin-3-yl)-2-(trifluoromethyl)cyclopropane-1-carboxamide] showed a pIC50 [1] of no less than 6.30 and a pKd (TYK2 JH2) of no less than 7.00.

`CNc1ncc(-c2nc3cc(N4C[C@H](C)O[C@@H](C)C4)ccc3o2)c2cc(NC(=O)[C@H]3C[C@H]3C)ncc12` [Example 1068, (1S,2R)-N-[5-[5-[(2S,6S)-2,6-dimethylmorpholin-4-yl]-1,3-benzoxazol-2-yl]-8-(methylamino)-2,7-naphthyridin-3-yl]-2-methyl-cyclopropanecarboxamide] showed a pIC50 [1] of no less than 6.30 and a pKd (TYK2 JH2) of no less than 7.00.

`CNc1ncc(-c2nc3cc(N4C[C@@H](C)O[C@H](C)C4)ccc3o2)c2cc(NC(=O)[C@H]3C[C@H]3C)ncc12` [Example 1070, (1S,2R)-N-(5-(5-((2R,6R)-2,6-dimethylmorpholino)benzo[d]oxazol-2-yl)-8-(methylamino)-2,7-naphthyridin-3-yl)-2-methylcyclopropane-1-carboxamide] gave a pIC50 [1] of no less than 6.30 and a pKd (TYK2 JH2) of no less than 7.00.

In the case of `CNc1ncc(-c2nc3ccc(N4CCOCC4)cn3n2)c2cc(NC(=O)C3CC3(F)F)ncc12` (centres unmarked) [Example 1071, 2,2-difluoro-N-(8-(methylamino)-5-(6-morpholino-[1,2,4]triazolo[1,5-a]pyridin-2-yl)-2,7-naphthyridin-3-yl)cyclopropane-1-carboxamide], the pIC50 [1] was no less than 6.30 and the pKd (TYK2 JH2) was no less than 7.00.

In the case of `CNc1ncc(-c2nc3ccc(N4CCOCC4)cn3n2)c2cc(NC(=O)C3(C(F)F)CC3)ncc12` [Example 1072, 1-(difluoromethyl)-N-[8-(methylamino)-5-(6-morpholino-[1,2,4]triazolo[1,5-a]pyridin-2-yl)-2,7-naphthyridin-3-yl]cyclopropanecarboxamide], the pIC50 [1] was no less than 6.30 and the pKd (TYK2 JH2) was no less than 7.00.

`CNc1ncc(C#Cc2ccc(OCF)cc2)c2cc(NC(=O)[C@H]3C[C@H]3C)ncc12` [Example 1073, (1S,2R)-N-[5-[2-[4-(fluoromethoxy)phenyl]ethynyl]-8-(methylamino)-2,7-naphthyridin-3-yl]-2-methyl-cyclopropanecarboxamide] gave a pIC50 [1] of no less than 6.30 and a pKd (TYK2 JH2) of no less than 7.00.

For `CNc1ncc(C#Cc2ccc(N3CCOCC3)cc2)c2cc(NC(=O)[C@H]3C[C@H]3C)ncc12` [Example 1076, (1S,2R)-2-methyl-N-(8-(methylamino)-5-((4-morpholinophenyl)ethynyl)-2,7-naphthyridin-3-yl)cyclopropane-1-carboxamide], the pIC50 [1] was no less than 6.30 and the pKd (TYK2 JH2) was no less than 7.00.

`CCC1CN(c2ccc3nc(-c4cnc(NC)c5cnc(NC(=O)[C@H]6C[C@H]6C)cc45)nn3c2)CCO1` (stereo partly drawn) [Example 1077, (1S,2R)-N-[5-[6-(2-ethylmorpholin-4-yl)-[1,2,4]triazolo[1,5-a]pyridin-2-yl]-8-(methylamino)-2,7-naphthyridin-3-yl]-2-methyl-cyclopropanecarboxamide] showed a pIC50 [1] of no less than 6.30 and a pKd (TYK2 JH2) of no less than 7.00.

`CNc1ncc(-c2nc3ccc(N4CCO[C@@H](C)C4)cn3n2)c2cc(NC(=O)C3CC3(C)C)ncc12` (stereo partly drawn) [Example 1080, 2,2-dimethyl-N-(8-(methylamino)-5-(6-((S)-2-methylmorpholino)-[1,2,4]triazolo[1,5-a]pyridin-2-yl)-2,7-naphthyridin-3-yl)cyclopropane-1-carboxamide] gave a pIC50 [1] of no less than 6.30 and a pKd (TYK2 JH2) of no less than 7.00.

Work on `CNc1ncc(C#Cc2ccc(OC)cn2)c2cc(NC(=O)C3CCOCC3)ncc12` [Example 1081, N-[5-[2-(5-methoxy-2-pyridyl)ethynyl]-8-(methylamino)-2,7-naphthyridin-3-yl]tetrahydropyran-4-carboxamide] yielded a pIC50 [1] of no less than 6.30 and a pKd (TYK2 JH2) of no less than 7.00.

In the case of `CNc1ncc(C#Cc2ccc(OC)cn2)c2cc(NC(=O)N3CCOCC3)ncc12` [Example 1082, N-[5-[2-(5-methoxy-2-pyridyl)ethynyl]-8-(methylamino)-2,7-naphthyridin-3-yl]morpholine-4-carboxamide], the pIC50 [1] was no less than 6.30 and the pKd (TYK2 JH2) was no less than 7.00.
